pIC50, pKd: −log10 of the molar value. Where two headings read alike, the source gives them in different places. Values belong to the molecule of their own block, whether it stands above or below them.
What was measured:
[1] = target: T1, Rat Serum Albumin (Rattus norvegicus, UniProt P02770); assay: ThermoFluor thermal shift assay with rat serum albumin; format: binding
T1 construct: The above albumins were prepared using method IV of Cohn et al. (J. Am. Chem. Soc. 69: 1753-1761, 1947) and purified with 1× crystallization; purchased Sigma A-6414
Text: (§1) To evaluate the bioavailability of a compound in various species, the compound's affinity and specificity to albumins from human, bovine, rat, and mouse were examined. […] The resulting 1× reaction mixture comprising human serum albumin, bovine serum albumin, rat serum albumin, or mouse serum albumin was used with a panel of compounds in the binding assay.

[2] = target: T2, Bovine Serum Albumin (BSA) (Bos taurus, UniProt P02769); assay: ThermoFluor thermal shift assay with bovine serum albumin; format: binding
T2 construct: The above albumins were prepared using method IV of Cohn et al. (J. Am. Chem. Soc. 69: 1753-1761, 1947) and purified with 1× crystallization; purchased Sigma A-7638
Text: as §1

[3] = target: Human Serum Albumin (HSA) (Homo sapiens, UniProt P02768); assay: ThermoFluor thermal shift assay with human serum albumin
Description: (§2) 1× reaction mixture of about 50 μg/mL human serum albumin, about 4 μM 1,8-ANS, about 150 mM NaCl, about 25 mM PIPES, pH 7.2, and about 0.002% Tween®-20 was prepared.
(§3) To prevent evaporation, about 1 μL of silicone oil was added to the plate using multichannel pipettors.
The plates were loaded onto a ThermoFluor® device and heated from about 25° C. to about 95° C. at a ramp-rate of about 1° C. per minute. Fluorescence was measured by continuous illumination with UV light (Hamamatsu LC6) via fiber optic and filtered through a band-pass filter of about 390±10 nm; >6 OD cutoff. Fluorescence emissions were detected by measuring light intensity using a CCD camera (Sensys, Roper Scientific) filtered to detect about 500±25 nm; >6 OD cutoff. This allows for the entire plate to be simultaneously monitored and each sample to be independently monitored. One or more images were collected at an interval of every about 0.5° C. to about 1° C. The sum of the pixel intensity at a given area of the plate was recorded vs. temperature.
(§4) The values of Tm, ΔH, yF,Tm, mF, yU,Tm and mU were calculated for each sample according to Equation 9. Further, the value of Tm over the compound concentration was used to calculate the binding constant (KD) using Equation 10b. A shift in the denaturation curve of albumin indicates whether the compound binds to albumin, and the value of KD indicates the binding strength of compounds to albumin. A shift of the fluorescence signal indicates the specificity of compounds to albumin, and the value of IC50 indicates the binding strength to the site I (Equation 11).
(§5) The compounds and 1× reaction mixture were dispensed and measured for the fluorescence value using the plate-based reader Tecan® Safire II. Then the plate was heated in a ThermoFluor® system and measured for fluorescence value and the thermal shift value. The fluorescence values were measured twice by both plate reader and ThermoFluor®. The fluorescence value obtained from ThermoFluor® was used for qualitative assessment whereas those from the plate reader was used for quantitative assessment. The value of IC50 was determined by the fluorescence obtained from the plate reader and was fit using Equation 11 described above. The value of KD was determined by the readings from ThermoFluor® and was fit using Equation 10b described above.

[4] = target: T3, Mouse Serum Albumin (Mus musculus, UniProt P07724); assay: ThermoFluor thermal shift assay with mouse serum albumin; format: binding
T3 construct: The above albumins were prepared using method IV of Cohn et al. (J. Am. Chem. Soc. 69: 1753-1761, 1947) and purified with 1× crystallization; purchased Sigma A-3559
Text: as §1

[5] = target: Human Serum Albumin (HSA) site I (Homo sapiens, UniProt P02768); assay: 1,8-ANS site-specific probe displacement (fluorescence) from HSA site I; conditions: for % Displacement: percent displacement of the site-specific probe 1,8-ANS at the second highest concentration of test ligand; for Fluorescent Signal: initial 1,8-ANS fluorescence as % of fluorescence without compound
Text: In addition to the thermal shift assay, the assay test plate may be utilized in a separate fluorescence measurement using a plate-based reader that is compatible with any relevant wavelengths. The preferred plate-based reader is Tecan Satire II. The displacement of site-specific probe such as 1,8-ANS from albumin site 1 by test ligand may cause a decrease in observed fluorescence that may be fit to Equation 11 to determine the value of IC50.
Additionally, the percent displacement may be determined by (y−yhigh), divided by the difference of low (y0) and high endpoints (yhigh), wherein y is determined at the second highest concentration.
as §2, §3, §4, §5

[6] = target: HSA (Homo sapiens, UniProt P02768); conditions: binding site on HSA from previous reports; cited from earlier work
[7] = Human Albumin (KD), Example 4, Table 3
[8] = classified from KD versus IC50 and % displacement of 1,8-ANS
[9] = HSA - KD, Example 3, Table 2, ThermoFluor, Equation 10b

T2 sequence (P02769 25-607): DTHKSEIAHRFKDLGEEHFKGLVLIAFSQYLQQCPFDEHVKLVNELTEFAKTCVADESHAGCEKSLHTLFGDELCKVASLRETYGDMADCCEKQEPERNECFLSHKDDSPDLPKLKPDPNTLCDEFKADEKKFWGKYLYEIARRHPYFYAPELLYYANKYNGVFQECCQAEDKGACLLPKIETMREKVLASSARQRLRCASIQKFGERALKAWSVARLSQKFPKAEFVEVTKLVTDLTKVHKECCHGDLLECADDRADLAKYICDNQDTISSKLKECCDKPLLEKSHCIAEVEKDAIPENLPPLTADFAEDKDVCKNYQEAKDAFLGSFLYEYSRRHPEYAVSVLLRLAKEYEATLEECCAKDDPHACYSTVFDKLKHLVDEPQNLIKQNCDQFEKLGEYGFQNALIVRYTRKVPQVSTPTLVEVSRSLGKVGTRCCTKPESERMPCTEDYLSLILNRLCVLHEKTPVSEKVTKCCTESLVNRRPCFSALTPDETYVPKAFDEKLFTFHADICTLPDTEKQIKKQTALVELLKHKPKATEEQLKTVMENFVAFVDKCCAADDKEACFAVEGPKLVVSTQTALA
T3 sequence (P07724 25-608): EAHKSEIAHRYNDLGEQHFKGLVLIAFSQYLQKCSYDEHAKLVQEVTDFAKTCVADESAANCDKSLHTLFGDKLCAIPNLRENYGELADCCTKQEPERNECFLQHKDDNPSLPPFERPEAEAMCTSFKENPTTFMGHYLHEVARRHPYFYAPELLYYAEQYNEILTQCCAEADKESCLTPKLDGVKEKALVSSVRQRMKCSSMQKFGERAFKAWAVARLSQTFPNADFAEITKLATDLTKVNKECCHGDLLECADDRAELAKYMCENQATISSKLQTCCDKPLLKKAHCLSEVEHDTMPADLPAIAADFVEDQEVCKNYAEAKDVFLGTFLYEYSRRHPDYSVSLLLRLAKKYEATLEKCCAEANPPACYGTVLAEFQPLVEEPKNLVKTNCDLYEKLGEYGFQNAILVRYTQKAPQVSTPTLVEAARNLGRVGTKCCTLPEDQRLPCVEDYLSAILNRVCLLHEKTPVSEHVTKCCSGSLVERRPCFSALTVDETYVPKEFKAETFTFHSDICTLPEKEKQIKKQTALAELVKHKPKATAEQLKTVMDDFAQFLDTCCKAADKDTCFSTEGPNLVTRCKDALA
Sequence of Human Serum Albumin (HSA) site I (P02768 25-609): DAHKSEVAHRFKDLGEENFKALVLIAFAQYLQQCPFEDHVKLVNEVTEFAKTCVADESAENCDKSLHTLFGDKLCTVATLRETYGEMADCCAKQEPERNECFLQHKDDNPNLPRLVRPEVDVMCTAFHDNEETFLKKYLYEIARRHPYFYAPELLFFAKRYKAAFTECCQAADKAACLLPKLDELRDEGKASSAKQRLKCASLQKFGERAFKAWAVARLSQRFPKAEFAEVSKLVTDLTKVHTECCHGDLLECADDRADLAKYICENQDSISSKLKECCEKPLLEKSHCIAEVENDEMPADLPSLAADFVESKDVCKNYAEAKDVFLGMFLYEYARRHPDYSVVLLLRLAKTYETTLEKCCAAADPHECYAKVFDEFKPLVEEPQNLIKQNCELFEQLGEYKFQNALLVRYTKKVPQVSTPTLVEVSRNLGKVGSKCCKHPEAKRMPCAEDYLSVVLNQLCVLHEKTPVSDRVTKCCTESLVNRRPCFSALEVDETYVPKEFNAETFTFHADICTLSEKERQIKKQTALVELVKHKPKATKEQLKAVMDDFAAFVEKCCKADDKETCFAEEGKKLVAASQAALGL
Sequence of Human Serum Albumin (HSA) (P02768 25-609): as above
Sequence of HSA (P02768 25-609): as above
T1 sequence (P02770 25-608): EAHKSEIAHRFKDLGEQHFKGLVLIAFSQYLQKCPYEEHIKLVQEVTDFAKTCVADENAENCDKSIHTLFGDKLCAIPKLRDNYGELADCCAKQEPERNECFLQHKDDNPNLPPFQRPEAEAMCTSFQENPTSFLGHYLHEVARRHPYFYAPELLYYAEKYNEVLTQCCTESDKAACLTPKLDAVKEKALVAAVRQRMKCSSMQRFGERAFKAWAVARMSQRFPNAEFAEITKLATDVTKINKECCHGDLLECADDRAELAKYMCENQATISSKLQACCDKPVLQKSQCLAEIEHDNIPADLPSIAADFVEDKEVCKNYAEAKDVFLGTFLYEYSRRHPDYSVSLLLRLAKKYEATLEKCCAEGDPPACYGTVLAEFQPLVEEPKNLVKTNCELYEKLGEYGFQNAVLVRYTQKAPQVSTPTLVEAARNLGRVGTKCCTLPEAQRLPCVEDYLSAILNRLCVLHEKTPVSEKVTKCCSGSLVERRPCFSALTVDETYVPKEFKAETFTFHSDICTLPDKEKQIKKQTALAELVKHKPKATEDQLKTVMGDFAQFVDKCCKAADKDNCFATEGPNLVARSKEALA

SMILES: C=CC1=C(C)/C(=C/c2[nH]c(Cc3[nH]c(/C=C4\NC(=O)C(C)=C4C=C)c(C)c3CCC(=O)O)c(CCC(=O)O)c2C)NC1=O [Bilirubin, bilirubin]
pKd ([1]; Example 4, Table 3): < 3.92
pKd ([2]; Example 4, Table 3): 4.07
pKd [3, 7]: 4.25
pKd ([4]; Example 4, Table 3): < 3.92
% Displacement [5]: (11) %

SMILES: C[C@]12CCC(=O)C=C1C=C[C@@H]1[C@@H]2CC[C@@]2(C)[C@H]1CC[C@@]2(O)CCC(=O)O [Canrenoate, canrenoate]
pKd ([1]; Example 4, Table 3): < 4.20
pKd ([2]; Example 4, Table 3): < 4.20
pKd [3, 7]: 4.40
Type of HSA Binding Interaction [3, 8]: Type 4
pKd ([4]; Example 4, Table 3): < 4.20
% Displacement [5]: (33) %
Reported Binding Site [6]: Site 1

SMILES: NS(=O)(=O)c1cc2c(cc1Cl)N=CNS2(=O)=O [Chlorothiazide, chlorothiazide]
pKd ([1]; Example 4, Table 3): < 4.20
pKd ([2]; Example 4, Table 3): < 4.20
pKd [3, 7]: < 4.20
Type of HSA Binding Interaction [3, 8]: Type 4
pKd ([4]; Example 4, Table 3): < 4.20
% Displacement [5]: (12) %
Reported Binding Site [6]: Site 2

SMILES: CCC(Cc1c(I)cc(I)c(N)c1I)C(=O)O (stereo not shown) [Iodopanoate, iodopanoate]
pKd ([1]; Example 4, Table 3): 6.02
pKd ([2]; Example 4, Table 3): 5.89
pKd [3]: 6.20
Type of HSA Binding Interaction [3, 8]: Type 3
pKd ([4]; Example 4, Table 3): 6.12
pIC50 [5]: 5.13
% Displacement [5]: (83) %
Reported Binding Site [6]: Site 2

SMILES: CCC(Cc1c(I)cc(I)c(O)c1I)C(=O)O (stereo not shown) [Iophenoxate, iophenoxate]
pKd ([1]; Example 4, Table 3): 7.32
pKd ([2]; Example 4, Table 3): 7.18
pKd [3]: 7.36
Type of HSA Binding Interaction [3, 8]: Type 1
pKd ([4]; Example 4, Table 3): 7.30
pIC50 [5]: 6.15
% Displacement [5]: (129) %
Reported Binding Site [6]: Site 1

SMILES: N[C@@H](Cc1c[nH]c2ccccc12)C(=O)O [L-Tryptophan, L-tryptophan]
pKd [1]: < 4.20
pKd [2]: < 4.20
Type of HSA Binding Interaction [3]: Type 5
pKd ([3]; Human Albumin (KD)): < 4.20
pKd [4]: < 4.20
Reported Binding Site [6]: Multiple sites

SMILES: c1ccc2c(c1)[nH]c1cnccc12 [Norharmane, norharmane]
pKd ([1]; Example 4, Table 3): < 4.20
pKd ([2]; Example 4, Table 3): < 4.20
Type of HSA Binding Interaction [3]: Type 5
pKd [3, 9]: 4.75
pKd [3, 7]: 4.75
pKd ([4]; Example 4, Table 3): < 4.20
Reported Binding Site [6]: Site 2

SMILES: O=c1c(O)c(-c2ccc(O)c(O)c2)oc2cc(O)cc(O)c12 [Quercetin, quercetin]
pKd ([1]; Example 4, Table 3): < 4.20
pKd [3, 9]: 5.10
pKd [3, 7]: < 4.20
Type of HSA Binding Interaction [3, 8]: Type 1
pKd ([4]; Example 4, Table 3): < 4.20
pIC50 [5]: 4.60
% Displacement [5]: (51) %
% Displacement ([5]; listed as quercetin): about 51%
Reported Binding Site [6]: Site 1

SMILES: Nc1ccc(S(=O)(=O)Nc2nccs2)cc1 [Sulfathiazole, sulfathiazole]
pKd ([1]; Example 4, Table 3): < 4.20
pKd ([2]; Example 4, Table 3): < 4.20
pKd [3, 7]: < 4.20
Type of HSA Binding Interaction [3, 8]: Type 4
pKd ([4]; Example 4, Table 3): < 4.20
% Displacement [5]: (40) %
Reported Binding Site [6]: Site 1

SMILES: CCCC(CCC)C(=O)O [Valproate, valproate]
pKd ([1]; Example 4, Table 3): < 4.20
pKd ([2]; Example 4, Table 3): < 4.20
pKd [3, 7]: < 4.20
pKd ([4]; Example 4, Table 3): < 4.20
% Displacement [5]: (31) %

The next lines start with results.

pKd ([1]; Example 4, Table 3): 5.82
pKd ([2]; Example 4, Table 3): 5.54
pKd [3, 9]: 5.68
pKd [3, 7]: 5.68
Type of HSA Binding Interaction [3, 8]: Type 3
pKd ([4]; Example 4, Table 3): 5.96
pIC50 [5]: 5.08
% Displacement [5]: (87) %
SMILES: CC(C(=O)O)c1ccc2c(c1)[nH]c1ccc(Cl)cc12 (stereo not shown) [Carprofen, carprofen]
Reported Binding Site [6]: Site 2

pKd ([1]; Example 4, Table 3): 4.53
pKd ([2]; Example 4, Table 3): 4.38
pKd [3, 9]: 4.09
pKd [3, 7]: 4.46
Type of HSA Binding Interaction [3, 8]: Type 4
pKd ([4]; Example 4, Table 3): 3.96
% Displacement [5]: (20) %
SMILES: CCCNC(=O)NS(=O)(=O)c1ccc(Cl)cc1 [Chlorpropamide, chlorpropamide]
Reported Binding Site [6]: Site 1

pKd ([1]; Example 4, Table 3): < 4.20
pKd ([2]; Example 4, Table 3): < 4.20
pKd [3, 7]: < 4.20
pKd ([4]; Example 4, Table 3): < 4.20
% Displacement [5]: (10) %
SMILES: CCOC(=O)C(C)(C)Oc1ccc(Cl)cc1 [Clofibrate, clofibrate]

pKd ([1]; Example 4, Table 3): 5.53
pKd ([2]; Example 4, Table 3): 5.73
pKd [3, 9]: 5.68
pKd [3, 7]: 5.68
pKd ([3]; KD, Example 2, Table 1, from Tm over compound concentration (Equation 10b)): 5.57
Type of HSA Binding Interaction [3, 8]: Type 3
HSA Tm ([3]; compound 0.244 μM): 74.4 °C
HSA Tm ([3]; compound 0.488 μM): 74.1 °C
HSA Tm ([3]; compound 0.977 μM): 74.3 °C
HSA Tm ([3]; compound 1.95 μM): 74.4 °C
HSA Tm ([3]; compound 3.91 μM): 75.0 °C
HSA Tm ([3]; compound 7.81 μM): 75.1 °C
HSA Tm ([3]; compound 15.6 μM): 75.7 °C
HSA Tm ([3]; compound 31.3 μM): 76.1 °C
HSA Tm ([3]; compound 62.5 μM): 76.8 °C
HSA Tm ([3]; compound 125 μM): 78.2 °C
HSA Tm ([3]; compound 250 μM): 80.2 °C
pKd ([4]; Example 4, Table 3): 5.42
pIC50 [5]: 3.81
Binding to site I of albumin as indicated by 1,8-ANS fluorescence ([5]; Example 2, dose-dependent change of initial fluorescence): does not bind to site I
Fluorescent Signal ([5]; compound 0.244 μM): 110%
Fluorescent Signal ([5]; compound 0.488 μM): 105%
Fluorescent Signal ([5]; compound 0.977 μM): 102%
Fluorescent Signal ([5]; compound 1.95 μM): 104%
Fluorescent Signal ([5]; compound 3.91 μM): 118%
Fluorescent Signal ([5]; compound 7.81 μM): 106%
Fluorescent Signal ([5]; compound 15.6 μM): 111%
Fluorescent Signal ([5]; compound 31.3 μM): 108%
Fluorescent Signal ([5]; compound 62.5 μM): 101%
Fluorescent Signal ([5]; compound 125 μM): 109%
Fluorescent Signal ([5]; compound 250 μM): 105%
% Displacement [5]: (47) %
SMILES: CC(C(=O)O)c1ccc(-c2ccccc2)c(F)c1 (stereo not shown) [Flurbiprofen, flurbiprofen]
Reported Binding Site [6]: Site 2

pKd ([1]; Example 4, Table 3): 5.03
pKd ([2]; Example 4, Table 3): < 4.20
pKd [3, 7]: < 4.20
Type of HSA Binding Interaction [3, 8]: Type 1
pKd ([4]; Example 4, Table 3): 4.16
pIC50 [5]: 4.02
% Displacement [5]: (71) %
SMILES: COc1cc(NS(=O)(=O)c2ccc(N)cc2)nc(OC)n1 [Sulfadimethoxine, sulfadimethoxine]
Reported Binding Site [6]: Site 1

pKd ([1]; Example 4, Table 3): 4.47
pKd ([2]; Example 4, Table 3): < 4.20
pKd [3, 9]: 4.89
pKd [3, 7]: 4.89
pKd ([4]; Example 4, Table 3): < 4.20
pIC50 [5]: 4.45
% Displacement [5]: (84) %
SMILES: CN1C(C(=O)Nc2ccccn2)=C(O)c2sccc2S1(=O)=O [Tenoxicam, tenoxicam]

From US8476081B2, “Assay for evaluating affinity and specificity of ligand-albumin binding” (Janssen Pharmaceutica NV, priority 2009, dated 2013)
